# Source: US9006262B2 (priority 2011, dated 2015)
# System: C57BL/6 mouse line transplanted with B16-F10 melanoma cells
# Conditions: in vivo
SMILES,life-prolonging effect (survival rate / lifetime),suppressive effect on body weight loss (percent change in body weight)
"CN1CC[C@]23c4c5ccc(O)c4O[C@H]2[C@@H](O)C=C[C@H]3[C@H]1C5 [morphine, Morphine]",tendency to reduce the lifetime,tendency of further body weight loss
"CN(C(=O)/C=C/c1ccoc1)[C@@H]1CC[C@@]2(O)[C@H]3Cc4ccc(O)c5c4[C@@]2(CCN3CC2CC2)[C@H]1O5.Cl [Compound 1, (−)-17-(cyclopropylmethyl)-3,14β-dihydroxy-4,5α-epoxy-6β-[N-methyl-trans-3-(3-furyl)acrylamido]morphinan hydrochloride]",statistically significant life-prolonging effect,statistically significant suppressive effect on body weight loss
